# Reference: US20260373103A1, “COMPOSITIONS AND METHODS FOR PREVENTING CARDIOMYOPATHY” (OHIO STATE INNOVATION FOUNDATION, priority 2022, published 2026)
# Columns and labels:
# TOM40 = TOM40 protein level/degradation after A/O, immunoblotting; type: cell-based; details: ST-539; HeLa-Parkin/USP30, A/O 18 h
# Description: HeLa cells and mouse embryonic fibroblasts (MEFs) were grown in Dulbecco's minimum essential medium (DMEM) with 10% fetal bovine serum (FBS) supplemented with penicillin-streptomycin. HeLa Parkin, PINK1 KO cells, WT and MFN2 KO cells were previously described. Cells stably expressing USP30 were generated using lentiviral vectors of pLVX-Puro-Myc-USP30. The USP30 plasmid was obtained from Addgene. The plasmid was transferred into a lentiviral vector and viral particles were prepared by transiently transfecting HEK293T using standard methods. For the drug treatment experiments, cells were incubated in medium containing a mixture of 5 μM oligomycin and 5 μM antimycin A (A/O; see figures for treatment times). In 18 h treatment, A/O were used in combination with 10 μM quinolyl-valyl-O-methylaspartyl-[−2,6-difluorophenoxy]-methyl ketone (QVD), a broad-spectrum caspase inhibitor. […]
# The enzymatic activity of Parkin is to function as an E3 ubiquitin ligase. […] We then employed this cellular assay to monitor TOM20 turnover, and analyzed compounds known to be associated with the ubiquitination process for inhibitors of USP30. […] Initially to assess mitophagy in cells, we monitored the degradation of the inner membrane protein, the translocase of the inner membrane 23 (TIM23), by immunoblotting (FIG. 5A). […]
# hippocampus of the brain = test: In vivo mitophagy in hippocampus of the brain; set-up: species or system mouse; details: 25 mg/kg/day i.p. for 5 days
# Description: Fluorescent samples were examined with a Zeiss LSM 780 confocal microscope (Carl Zeiss MicroImaging). As previously described^2, fluorescence of mt-Keima was imaged in two channels via two sequential excitations (458 nm, green; 561 nm, red) and using a 570- to 695-nm emission range. Confocal experiments for parkin translocation were performed using a HeLa cell line stably expressing YFP-Parkin plated on 35 mm coverglass #1.5 chamber dishes (MatTek). These cells were treated for 2 h with DMSO as vehicle control or with A/O. YFP was imaged with a 514-nm excitation and 520- to 570-emission filters. Representative confocal images were processed using Imaris software by contrast linear stretch only. Calculation of mitophagy based on mt-Keima signal was performed using Zeiss ZEN software as previously described^2. The average of four images from each tissue sample was taken, and the values were normalized to the average value seen in the controls, assigned the value of one.
# The mt-Keima mouse. […] The mice were lightly anesthetized with isoflurane and the ejection fraction, fractional shortening, and ventricular chamber dimensions were determined using 2-D-guided M mode images. Ejection fraction, fractional shortening, ventricular chamber dimensions, and left ventricular mass were calculated automatically using the VevoLAB program. […]
# mice = test: Safety / tolerability in mice; type: in vivo; details: 25 mg/kg/day i.p. for 5 days
# Description: The mt-Keima mouse. ST-539 was dissolved into 1% DMSO in Sesame oil and injected intraperitoneally (i.p.) at doses of 25 mg/kg/day with five total doses. Both male and female mice were used in this study. The control group received vehicle only. Echocardiographic measurements were taken using a Vevo3100 Visual Sonics (Visual Sonics) system. The mice were lightly anesthetized with isoflurane and the ejection fraction, fractional shortening, and ventricular chamber dimensions were determined using 2-D-guided M mode images. Ejection fraction, fractional shortening, ventricular chamber dimensions, and left ventricular mass were calculated automatically using the VevoLAB program. All experiments involving animals were approved by the Institutional Animal Care and Use Committee at The Ohio State University.
# HeLa cells = test: Mitophagy inducer screen by TOM20 turnover; type: cell-based; details: cellular TOM20 turnover assay
# Description: The enzymatic activity of Parkin is to function as an E3 ubiquitin ligase. […] To investigate TOM20 ubiquitination during mitophagy, we treated HeLa cells stably expressing YFP-Parkin (Hela-Parkin) for up to 18 h with both the mitochondrial complex III inhibitor antimycin A and the ATP synthase inhibitor oligomycin (antimycin A/oligomycin/[A/O]; FIG. 1A). […] A/O treatment also results in a decline in the abundance of the OMM protein TOM40 and the inner mitochondrial protein TIM23 (FIG. 1A). […] In this context, increased expression of USP30 blocked the accumulation of ubiquitinated TOM20 and prevented the destruction of this outer mitochondrial protein, as well as TOM40 and TIM23, after A/O treatment (FIG. 1A). We then employed this cellular assay to monitor TOM20 turnover, and analyzed compounds known to be associated with the ubiquitination process for inhibitors of USP30. […] We defined the effects of this chemical using biochemical assays. […] Initially to assess mitophagy in cells, we monitored the degradation of the inner membrane protein, the translocase of the inner membrane 23 (TIM23), by immunoblotting (FIG. 5A). […] USP30's overexpression prevented a reduction in TIM23 and TOM40 levels.
smiles,measurement,setting,value
CC(C)(C)NS(=O)(=O)c1cccc2c(NC(=O)C(Cc3ccccc3)NC(=O)c3ccccc3)cccc12 (stereo not shown) [ST-539],TOM40 degradation,TOM40,restored TIM23 and TOM40 degradation
same,mitophagic flux in hippocampus,hippocampus of the brain,remains unchanged
same,safety / tolerability in mice,mice,appears to be safe in mice
same,potency as mitophagy inducer in screen,HeLa cells,most potent mitophagy inducer
